Like-named read-outs stand apart in the source and are kept apart here.
Assays:
DI318 CSCs = assay: 7-day CTG viability assay (GI50, cross-titrations, irradiation) in DI318; format: cell-based; conditions: Homo sapiens
Protocol: For GI50 determination, compounds were stamped in technical triplicate, while for synergy cross-titrations dose-response matrices were prepared in technical duplicate. Different CSC lines, grown in suspension as spheroids, were split with Accutase and seeded directly on top of the prestamped compounds (50 μL of NBMc and 700 cells/well). The outer 4 rows (A,B and O,P row IDs) and 4 columns (1,2 and 23,24 column IDs) were filled with 80 μL of PBS to minimize evaporation. Cells were incubated with compounds for 7 days at 37°C/5% CO2 prior to the addition of 25 μL/well Cell-Titer Glo (Promega) and luminescence quantification on a Revvity EnVision plate reader. […] For the cross-titrations of 2 compounds, synergy scores were calculated using the MuSyC webserver ([79]). […]
antagonist (p53 activator) RG7112 following either 0 Gy or 2 Gy irradiation. Mean values are presented from a single biological replicate conducted in technical triplicate. Follow- […]
Cell viability was quantified as described in the Materials and Methods four days post-irradiation (seven days total). The

P-glycoprotein (MDR1) = biological target: T1, P-glycoprotein (MDR1) (Homo sapiens, UniProt P08183); assay: MDR1-MDCK permeability and efflux; format: in vitro ADME; conditions: for Papp A→B at 120 min, 5 μM / Papp B→A at 120 min, 5 μM / recovery at 120 min, 5 μM: dog, MDCK-MDR1, pH 7.4, 5 μM
T1 construct: host or cells: MDR1-MDCK cell monolayers
Protocol: Test Direction Recovery Papp (10-6 cm/s) Efflux Brain
Article (%) R1 R2 AVG Ratio Penetration
Supplemental Figure 4. Blood-brain barrier (BBB) penetration potential using MDR1-MDCK cell monolayers. All P-glycoprotein (MDR1) permeability and efflux studies were conducted at Absorption Systems (parent company Pharmaron). In brief, MDR1-MDCK monolayers were grown to confluence on collagen-coated, microporous membranes in 12-well assay plates. The permeability assay buffer was Hanks’ balanced salt solution containing 10 mM HEPES and 15 mM glucose at a pH of 7.4. The buffer in the receiver chamber also contained 1% bovine serum albumin. The dosing solution concentration was 5 μM of test article in the assay buffer. Cell monolayers were dosed on the apical side (A-to-B) or basolateral side (B-to-A) and incubated at 37°C with 5% CO2 in a humidified incubator. Samples were taken from the donor and receiver chambers after 120 minutes. Each determination was performed in duplicate. The flux of lucifer yellow was also measured post-experimentally for each monolayer to ensure no damage was inflicted to the cell monolayers during the flux period. All samples were assayed by LC-MS/MS using electrospray ionization. Efflux ratio (ER) is defined as Papp (B-to-A) / Papp […]

[1] = In vivo intraperitoneal plasma:brain level (PBL) studies; design: species or system mice; conditions: for Kp: male
Protocol: In Vivo Intraperitoneal Plasma:Brain Level (PBL) Studies
Core (RMPC) at the Vanderbilt University Medical Center (VUMC) Metabolic Physiology Shared Resource Core (MPSR). The studies were performed according to guidelines […]
approved by the Institutional Animal Care and Use Committee (IACUC) of VUMC following the guidance of the Association for Assessment and Accreditation of Laboratory Animal Care (AAALAC). Male CD-1 mice (Charles River Laboratories, Wilmington, MA) were overnight fasted on the evening prior to study. On the morning of study mice were weighed and allowed to acclimate to the room for at least 30 minutes prior to dosing.
Food was returned 3 hr after intraperitoneal dosing. At time zero IP of test article was given (20% β-HPCD, 1-10 mg/mL with addition of 1N HCl per molar equivalent of test article, N=8 mice, two per timepoint). At 0.5, 1, 3, and 6 h post-dose, mice were placed into a plane of anesthesia using Isoflurane. A terminal blood sample was collected via cardiac puncture followed by immediate euthanasia and brain collection. Brain was washed with cold PBS or Saline, blotted dry on a piece of gauze, weighed, and flash frozen in liquid nitrogen. Whole blood was centrifuged at 5000 x g for 5 minutes and plasma was removed into a fresh tube for storage. All samples were stored at -80 °C until shipment on dry ice for bioanalysis at Q2 Solutions. […]
conducted at Medicilon Inc. DMPK (CRO, Shanghai) using a similar protocol as above using modified timepoints (5 min, 15 min, 30 min, 1, 3, and 8 h), male ICR mice, and a […]
cyclodextrin). The blood was taken via submandibular vein or other suitable vein, 0.03 mL/time point. Samples were placed in tubes containing K2-EDTA and stored on ice until centrifuged. The blood samples were centrifuged at 6800 x g for 6 minutes at 2-8°C within 1h after collection and stored frozen at -80°C. After blood sample collection, the brain was removed, rinsed with saline, dried with filter paper, placed into labeled EP tubes (1 tube/tissue/animal/time point, and frozen at -80°C prior to bioanalysis. The analytical […]
results were validated using a calibration curve to lower limit of quantification of 2 ng/mL for parent analyte with tolbutamide as an internal standard. […]

[2] = Plasma protein binding (equilibrium dialysis), rat; format: in vitro ADME; conditions: read-out: PPB % fu (r)
Protocol: both the protein side and buffer side of the membrane after incubation and the parent
compound was quantified. […]

5 different CSC models = assay: 7-day CTG viability / cross-titration, panel of 5 CSC models; format: cell-based, human; conditions: Homo sapiens; 7-day assay, 5 CSC models
Protocol: For GI50 determination, compounds were stamped in technical triplicate, while for synergy cross-titrations dose-response matrices were prepared in technical duplicate. Different CSC lines, grown in suspension as spheroids, were split with Accutase and seeded directly on top of the prestamped compounds (50 μL of NBMc and 700 cells/well). The outer 4 rows (A,B and O,P row IDs) and 4 columns (1,2 and 23,24 column IDs) were filled with 80 μL of PBS to minimize evaporation. Cells were incubated with compounds for 7 days at 37°C/5% CO2 prior to the addition of 25 μL/well Cell-Titer Glo (Promega) and luminescence quantification on a Revvity EnVision plate reader. […] For the cross-titrations of 2 compounds, synergy scores were calculated using the MuSyC webserver ([79]).

[3] = DI318 + RAD (2 Gy), read-out: log(GI50) (converted)
[4] = […], DI318, 7-day CTG, pGI50 = −log10[GI50(M)], read-out: pGI50 (converted)
[5] = CD-1 (C3TD343), ICR (C3TD078), mouse, brain, intraperitoneal, 100 mg/kg, 100 mg/kg i.p., mice, read-out: P:B

T1 sequence (P08183 whole entry): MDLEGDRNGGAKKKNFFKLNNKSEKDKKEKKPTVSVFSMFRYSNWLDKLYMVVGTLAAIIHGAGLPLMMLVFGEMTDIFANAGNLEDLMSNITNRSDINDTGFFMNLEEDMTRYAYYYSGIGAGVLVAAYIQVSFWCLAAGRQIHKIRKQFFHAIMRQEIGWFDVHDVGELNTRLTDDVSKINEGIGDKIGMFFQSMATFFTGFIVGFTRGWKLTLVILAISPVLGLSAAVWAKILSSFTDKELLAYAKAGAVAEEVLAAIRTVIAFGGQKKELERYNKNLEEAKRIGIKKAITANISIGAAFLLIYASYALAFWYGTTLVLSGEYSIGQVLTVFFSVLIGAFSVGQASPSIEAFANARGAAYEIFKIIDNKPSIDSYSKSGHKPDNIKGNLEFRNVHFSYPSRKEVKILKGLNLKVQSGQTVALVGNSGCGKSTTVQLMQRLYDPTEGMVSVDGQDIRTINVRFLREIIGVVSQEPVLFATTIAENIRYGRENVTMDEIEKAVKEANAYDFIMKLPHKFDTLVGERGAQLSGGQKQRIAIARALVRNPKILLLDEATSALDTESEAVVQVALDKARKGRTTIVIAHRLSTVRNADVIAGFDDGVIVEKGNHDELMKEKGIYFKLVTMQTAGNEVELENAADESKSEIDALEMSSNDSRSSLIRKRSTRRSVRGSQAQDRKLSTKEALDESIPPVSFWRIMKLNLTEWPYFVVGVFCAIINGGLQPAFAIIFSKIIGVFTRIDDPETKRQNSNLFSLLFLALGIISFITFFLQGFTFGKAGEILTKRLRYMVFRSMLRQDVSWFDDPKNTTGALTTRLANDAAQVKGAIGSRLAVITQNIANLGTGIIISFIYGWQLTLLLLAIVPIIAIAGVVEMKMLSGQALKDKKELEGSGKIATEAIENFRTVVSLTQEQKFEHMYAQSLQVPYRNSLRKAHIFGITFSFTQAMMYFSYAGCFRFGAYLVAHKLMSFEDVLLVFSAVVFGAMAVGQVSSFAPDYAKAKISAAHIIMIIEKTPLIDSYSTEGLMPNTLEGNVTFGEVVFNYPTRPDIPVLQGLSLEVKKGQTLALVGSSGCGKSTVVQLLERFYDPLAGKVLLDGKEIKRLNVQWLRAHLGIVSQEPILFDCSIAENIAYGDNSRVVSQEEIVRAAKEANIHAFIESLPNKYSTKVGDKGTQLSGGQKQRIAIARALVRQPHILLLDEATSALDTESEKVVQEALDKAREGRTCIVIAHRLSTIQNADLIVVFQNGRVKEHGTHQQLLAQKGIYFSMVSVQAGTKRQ

SMILES | GI50 (DI318 CSCs; [3]) [M] | GI50 (DI318 CSCs; [4]) [M] | Brain Penetration Classification (P-glycoprotein (MDR1)) | Papp A→B at 120 min, 5 μM (P-glycoprotein (MDR1); read-out: Papp A-to-B, AVG) [nm/s] | Papp A→B at 120 min, 5 μM (P-glycoprotein (MDR1); read-out: Papp A-to-B, R1) [nm/s] | Papp A→B at 120 min, 5 μM (P-glycoprotein (MDR1); read-out: Papp A-to-B, R2) [nm/s] | Papp B→A at 120 min, 5 μM (P-glycoprotein (MDR1); read-out: Papp B-to-A, AVG) [nm/s] | Papp B→A at 120 min, 5 μM (P-glycoprotein (MDR1); read-out: Papp B-to-A, R1) [nm/s] | Papp B→A at 120 min, 5 μM (P-glycoprotein (MDR1); read-out: Papp B-to-A, R2) [nm/s] | recovery at 120 min, 5 μM (P-glycoprotein (MDR1); read-out: Recovery, A-to-B) [%] | recovery at 120 min, 5 μM (P-glycoprotein (MDR1); read-out: Recovery, B-to-A) [%] | Kp [1, 5] | fraction unbound at […] [2] | GI50 (5 different CSC models) [µM] | other results
COc1cc(Cn2nnc3c2CCc2c-3cc(Cn3ccnc3C)cc2C2CC2)ccc1F [C3TD343] | 6.31e-06 | 5.01e-06 | Low | 1.13 | 1.31 | 0.949 | 433 | 402 | 463 | 71.2 | 76.8 | 0.25 | 0.027 | – | efflux by P-glycoprotein (P-glycoprotein (MDR1); MDR1-MDCK permeability studies): strongly effluxed; total brain AUC ([1]; 100 mg/kg i.p., mice): 2.9 µM·h; total brain Cmax ([1]; 100 mg/kg i.p., mice): 2.4 µM; duration of brain exposure ([1]; i.p., mice): less than 4 hours
COc1cc(CN2CCc3c(cc(Cn4ccn(C)c4=N)cc3-c3ccc(F)cc3C)C2=O)cc(OC)c1 [C16, reference compound] | 7.94e-07 | 1.58e-06 | Low | 7.15 | 5.56 | 8.75 | 17 | 14.9 | 19.1 | 85.6 | 87.3 | – | 0.008 | 1 to 5 | GI50 (DI318 CSCs; DI318, 0 Gy, read-out: log(GI50) (converted)): 2e-06 M; Cmax brain ([1]; 10 mg/kg IP, male mice): 0.102 µM; AUC brain ([1]; 10 mg/kg IP, male mice, 6 hrs interval): 0.357 µM·h; Tmax ([1]; CD-1, mouse, brain, 10 mg/kg IP, male mice, read-out: Tmax brain): 30 min; Cmax ([1]; CD-1, mouse, plasma, 10 mg/kg IP, male mice): 14.2 µM; AUC ([1]; CD-1, mouse, plasma, 10 mg/kg IP, male mice, 6 hrs interval): 11.9 µM·h; Tmax ([1]; CD-1, mouse, plasma, 10 mg/kg IP, male mice, read-out: Tmax plasma): 30 min; Kp ([1]; CD-1, mouse, brain, ip, 10 mg/kg, C16 10 mg/kg IP, male mice, read-out: brain/plasma ratio P:B (AUC)): < 0.05
COc1cc(Cn2nnc3c2CCc2c(-c4cn(C)nc4C(F)(F)F)cc(Cn4ccnc4C)cc2-3)cc(OC)c1 [C3TD078] | 6.31e-07 | 2e-06 | – | – | – | – | – | – | – | – | – | < 0.05 | – | 1 to 5 | –
